Test results as given in ChEMBL document CHEMBL3621086, “Synthesis of -brominated phosphonates and their application as phosphate bioisosteres” (Medchemcomm, 2014).

Tests used:
Autotaxin [1] = molecular target: T1, Autotaxin (Homo sapiens, UniProt Q13822); assay: Inhibition of recombinant ATX (unknown origin) assessed as inhibition of hydrolysis of fluoregenic lysoPC analogue FS-3 at 10 uM
[2] = molecular target: Lysophosphatidic acid receptor 4 (Homo sapiens, UniProt Q99677); assay: Antagonist activity at human LPA4 receptor expressed in CHO cells assessed as inhibition of LPA-induced Ca2+ mobilization by FURA-2AM dye based fluorescence assay; assay type: functional, cell-based
[3] = molecular target: T2, Lysophosphatidic acid receptor 3 (Homo sapiens, UniProt Q9UBY5); assay: Antagonist activity at human LPA3 receptor expressed in […] cells assessed as inhibition of LPA-induced Ca2+ mobilization by FURA-2AM dye based fluorescence assay; assay type: functional, cell-based
T2 sequence (Q9UBY5 whole entry): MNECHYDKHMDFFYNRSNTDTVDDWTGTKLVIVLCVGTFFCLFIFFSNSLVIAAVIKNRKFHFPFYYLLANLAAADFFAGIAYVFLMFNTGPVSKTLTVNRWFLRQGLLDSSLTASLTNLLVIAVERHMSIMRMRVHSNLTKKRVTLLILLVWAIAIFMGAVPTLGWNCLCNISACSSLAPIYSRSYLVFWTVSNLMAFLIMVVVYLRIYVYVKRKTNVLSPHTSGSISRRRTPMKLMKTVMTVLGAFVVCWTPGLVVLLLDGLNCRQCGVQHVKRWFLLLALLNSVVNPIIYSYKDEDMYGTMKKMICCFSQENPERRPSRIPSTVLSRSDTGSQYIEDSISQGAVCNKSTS

[4] = molecular target: Lysophosphatidic acid receptor 1 (Homo sapiens, UniProt Q92633); assay: Antagonist activity at human LPA1 receptor expressed in […] cells assessed as inhibition of LPA-induced Ca2+ mobilization by FURA-2AM dye based fluorescence assay; assay type: functional, cell-based
[5] = molecular target: Lysophosphatidic acid receptor 2 (Homo sapiens, UniProt Q9HBW0); assay: Antagonist activity at human LPA2 receptor expressed in […] cells assessed as inhibition of LPA-induced Ca2+ mobilization by FURA-2AM dye based fluorescence assay; assay type: functional, cell-based
[6] = Binding affinity to Yersinia YopH
Autotaxin [7] = molecular target: T1, Autotaxin; assay: Inhibition of recombinant ATX (unknown origin) assessed as inhibition of hydrolysis of fluoregenic lysoPC analogue FS-3
MDA-MB-231 = assay: Inhibition of cell migration in human MDA-MB-231 cells by scratch wound assay; assay type: functional
[8] = molecular target: Transient receptor potential cation channel subfamily V member 1 (Homo sapiens, UniProt Q8NER1); assay: Activation of TRPV-1 channel (unknown origin)
[9] = molecular target: T3, Purine nucleoside phosphorylase (Homo sapiens, UniProt P00491); assay: Inhibition of human erythrocyte PNP
T3 sequence (P00491 whole entry): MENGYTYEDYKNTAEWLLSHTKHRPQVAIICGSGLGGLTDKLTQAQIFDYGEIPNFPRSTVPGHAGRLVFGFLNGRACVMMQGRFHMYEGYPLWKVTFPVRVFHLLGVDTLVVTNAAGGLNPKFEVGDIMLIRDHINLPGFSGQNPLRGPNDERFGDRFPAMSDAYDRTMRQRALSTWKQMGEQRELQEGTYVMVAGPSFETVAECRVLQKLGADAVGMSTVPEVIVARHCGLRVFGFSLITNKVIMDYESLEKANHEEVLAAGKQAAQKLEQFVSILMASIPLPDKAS

Chain of Transient receptor potential cation channel subfamily V member 1 (Q8NER1 whole entry): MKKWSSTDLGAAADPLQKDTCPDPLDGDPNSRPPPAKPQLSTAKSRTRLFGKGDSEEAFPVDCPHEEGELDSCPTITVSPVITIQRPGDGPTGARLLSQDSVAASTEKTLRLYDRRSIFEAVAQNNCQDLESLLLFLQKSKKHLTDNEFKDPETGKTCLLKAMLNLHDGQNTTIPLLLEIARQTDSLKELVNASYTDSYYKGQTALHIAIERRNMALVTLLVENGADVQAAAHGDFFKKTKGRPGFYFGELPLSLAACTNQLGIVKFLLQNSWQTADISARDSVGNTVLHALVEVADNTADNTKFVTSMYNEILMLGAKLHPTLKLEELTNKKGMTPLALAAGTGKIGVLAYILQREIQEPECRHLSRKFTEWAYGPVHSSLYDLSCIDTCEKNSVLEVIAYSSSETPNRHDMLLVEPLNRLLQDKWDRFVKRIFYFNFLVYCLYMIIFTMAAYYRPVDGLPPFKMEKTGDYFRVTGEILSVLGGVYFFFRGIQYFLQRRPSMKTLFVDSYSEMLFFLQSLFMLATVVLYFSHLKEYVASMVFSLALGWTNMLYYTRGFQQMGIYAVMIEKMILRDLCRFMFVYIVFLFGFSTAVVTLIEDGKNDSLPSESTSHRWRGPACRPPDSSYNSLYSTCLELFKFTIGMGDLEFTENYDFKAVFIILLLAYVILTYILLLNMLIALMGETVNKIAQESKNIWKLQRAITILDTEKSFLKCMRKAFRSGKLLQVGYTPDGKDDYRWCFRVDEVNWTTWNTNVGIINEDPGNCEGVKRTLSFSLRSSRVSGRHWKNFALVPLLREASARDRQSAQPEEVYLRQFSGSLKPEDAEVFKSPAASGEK
Chain of Lysophosphatidic acid receptor 4 (Q99677 whole entry): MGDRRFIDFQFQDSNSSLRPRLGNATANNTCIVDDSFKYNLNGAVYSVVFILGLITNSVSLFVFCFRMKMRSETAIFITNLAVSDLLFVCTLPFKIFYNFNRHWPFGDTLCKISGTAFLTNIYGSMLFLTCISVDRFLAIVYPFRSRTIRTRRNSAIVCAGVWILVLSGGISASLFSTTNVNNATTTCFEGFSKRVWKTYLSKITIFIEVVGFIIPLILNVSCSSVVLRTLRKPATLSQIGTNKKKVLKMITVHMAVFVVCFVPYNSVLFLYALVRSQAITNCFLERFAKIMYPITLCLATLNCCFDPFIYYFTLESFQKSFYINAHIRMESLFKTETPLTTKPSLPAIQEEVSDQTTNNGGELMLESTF
Chain of Lysophosphatidic acid receptor 2 (Q9HBW0 whole entry): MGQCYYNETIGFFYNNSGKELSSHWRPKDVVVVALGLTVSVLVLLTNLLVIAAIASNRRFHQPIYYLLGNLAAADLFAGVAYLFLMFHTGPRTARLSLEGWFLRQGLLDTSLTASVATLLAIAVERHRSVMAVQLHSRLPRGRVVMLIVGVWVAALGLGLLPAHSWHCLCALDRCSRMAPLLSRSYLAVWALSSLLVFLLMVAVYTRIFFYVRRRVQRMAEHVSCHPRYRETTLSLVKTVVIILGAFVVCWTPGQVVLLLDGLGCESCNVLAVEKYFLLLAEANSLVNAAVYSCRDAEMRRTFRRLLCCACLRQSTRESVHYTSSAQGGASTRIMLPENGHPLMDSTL
Chain of Lysophosphatidic acid receptor 1 (Q92633 whole entry): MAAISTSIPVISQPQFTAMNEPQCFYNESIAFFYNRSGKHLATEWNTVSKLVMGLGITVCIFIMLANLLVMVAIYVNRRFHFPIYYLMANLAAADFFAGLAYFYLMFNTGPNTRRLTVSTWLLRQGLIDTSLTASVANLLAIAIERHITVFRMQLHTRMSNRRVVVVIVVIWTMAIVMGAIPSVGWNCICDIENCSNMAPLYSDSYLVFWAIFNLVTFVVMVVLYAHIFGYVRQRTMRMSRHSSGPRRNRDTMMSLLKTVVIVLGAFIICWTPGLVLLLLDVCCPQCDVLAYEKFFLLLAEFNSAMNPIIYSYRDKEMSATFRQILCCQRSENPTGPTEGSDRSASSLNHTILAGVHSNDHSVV

Compound `CCCCCCCCCCCCCCCC(=O)OC[C@@H](O)CC(Br)P(=O)(O)O` (mixture of isomers) [listing 1 of 2 here] has an inhibition (Autotaxin [1]) of 98%.

With `CCCCCCCCCCCCCCCC(=O)OC[C@@H](O)CC(Br)P(=O)(O)O` (some centres not stated) the Ki [2] was 0.17 µM, the Ki [3] was 0.17 µM and the Ki [4] was 0.17 µM. The Ki [5] was 0.17 µM.

`CCN(CC)c1ccc2c(-c3ccc(S(=O)(=O)NCc4ccc(C(Br)P(=O)(O)O)cc4)cc3S(=O)(=O)[O-])c3ccc(=[N+](CC)CC)cc-3oc2c1` (configuration not stated) showed a Ki [6] of 690 µM.

In the case of `O=C(CCCC[C@H]1SC[C@H]2NC(=O)N[C@H]21)NCc1ccc(C(Br)P(=O)(O)O)cc1` (some centres not stated), the Ki [6] is reported as 740 µM.

For `CCCCCCCCCCCCCCCC(=O)OC[C@@H](O)C[C@H](Br)P(=O)(O)O`, the inhibition (Autotaxin [1]) was 98%, the IC50 (Autotaxin [7]) was 0.022 µM and the “inhibition (INH)” value (MDA-MB-231) was 50%.

In the case of `CCN(CC)c1ccc2c(-c3ccc(S(=O)(=O)[O-])cc3S(=O)(=O)NCc3ccc(C(Br)P(=O)(O)O)cc3)c3ccc(=[N+](CC)CC)cc-3oc2c1` (configuration not stated), the Ki [6] is reported as 690 µM.

`CCCCCCCCCCCCCCCC(=O)OC[C@@H](O)CC(Br)P(=O)(O)O` (mixture of isomers) [listing 2 of 2 here] showed a Kd [8] of 1.1 µM.

With `O=P(O)(O)C(Br)c1ccccc1` (configuration not stated) the Ki [6] was 4100 µM.

With `CCCCCCCC/C=C\CCCCCCCC(=O)OC[C@@H](O)COP(=O)(O)O` [LYSOPHOSPHATIDIC ACID] the Kd [8] was 0.754 µM.

For `CCCCCCCCCCCCCCCC(=O)OC[C@@H](O)C[C@@H](Br)P(=O)(O)O`, the inhibition (Autotaxin [1]) was 98%, the IC50 (Autotaxin [7]) was 0.165 µM and the “inhibition (INH)” value (MDA-MB-231) was 50%.

Compound `CCCCCCCC/C=C\CCCCCCCC(=O)OC[C@@H](O)CC(Br)P(=O)(O)O` (some centres not stated) has a Ki [2] of 0.17 µM, a Ki [3] of 0.17 µM and a Ki [4] of 0.17 µM. For the same compound, the Ki [5] was 0.17 µM.

Work on `Nc1nc2c(ncn2CCCCC(F)(F)P(=O)(O)O)c(=O)[nH]1` yielded a Ki [9] of 0.174 µM.
